{"source": "patent US20170056561A1", "about": "“COMPOSITIONS FOR THE TREATMENT OF JOINTS” (CorMedix Inc., priority 2015, published 2017)", "key": {"[1]": {"tested_on": "Pseudomonas aeruginosa (PAO1)", "test": "Solution exposure of HA/taurolidine hydrogels to living cultures (bacteria kill)", "assay_type": "cell-based", "details": "20 μl early phase culture in 980 μl formulation", "experimental": "(§1) The following evaluations were done to assess the performance of gels comprising hyaluronic acid and taurolidine. Solution exposure of the hyaluronic acid/taurolidine hydrogels, immersed in early phase concentrations of 2 test microorganisms, were conducted. Additionally, the physical properties of the hydrogels were assessed to determine their shear/thixotropic properties.\n(§2) In this study, two strains of bacteria, Pseudomonas aeruginosa (PAO1) and Stapylococcus aureus strain SA 113), were evaluated for total kill of each of the strains after 4 and 24 hours of exposure. 20 μl of early phase culture of each strain was placed in 980 μl of each hyaluronic acid/taurolidine formulation. Samples of remaining bacteria concentrations were determined for the samples after 4 and 24 hours of exposure. Four controls were prepared, one control without hyaluronic acid and three other controls with different molecular weights of hyaluronic acid (low, medium and high MW) (all without taurolidine). These were compared against the same 3 different molecular weights of hyaluronic acid which contained taurolidine, with each hyaluronic acid MW containing target concentrations of 1.5, 3, or 6% taurolidine by weight in the hyaluronic acid hydrogel matrix (Table 1). […] These were also evaluated against a known antimicrobial, gentamicin."}, "[2]": {"tested_on": "Stapylococcus aureus strain SA 113", "test": "Solution exposure of HA/taurolidine hydrogels to living cultures (bacteria kill)", "assay_type": "cell-based", "details": "20 μl early phase culture in 980 μl formulation", "experimental": "as §1, §2"}}}
{"substance": "Gentamicin", "values": [{"measurement": "Remaining bacteria concentrations PA01 (4 hr)", "setting": "[1]; 4 hour exposure", "result": "0.00E+00"}, {"measurement": "Remaining bacteria concentrations PA01 (24 hr)", "setting": "[1]; 24 hour exposure", "result": "0.00E+00"}, {"measurement": "Remaining bacteria concentrations SA113 (4 hr)", "setting": "[2]; 4 hour exposure", "result": "3.77E+02"}, {"measurement": "Remaining bacteria concentrations SA113 (24 hr)", "setting": "[2]; 24 hour exposure", "result": "8.33E+00"}]}
